Columns and labels:
[1] = target: T1, B1R receptor of the rat (rB1R) (Rattus norvegicus, UniProt P97583); assay: FLIPR Ca2+ functional study on bradykinin receptor 1, rB1R cells (CHO K1); assay type: cell-based; conditions: 10 μM test substance; CHO K1 cells with rat B1R; agonist Des-Arg9-bradykinin at EC80; read-out: B1R antagonism, rat [10 μM] % inhibition
T1 construct: expressed in transfected cells; host or cells: CHO K1 cells, stably transfected
T1 sequence (P97583 1-337): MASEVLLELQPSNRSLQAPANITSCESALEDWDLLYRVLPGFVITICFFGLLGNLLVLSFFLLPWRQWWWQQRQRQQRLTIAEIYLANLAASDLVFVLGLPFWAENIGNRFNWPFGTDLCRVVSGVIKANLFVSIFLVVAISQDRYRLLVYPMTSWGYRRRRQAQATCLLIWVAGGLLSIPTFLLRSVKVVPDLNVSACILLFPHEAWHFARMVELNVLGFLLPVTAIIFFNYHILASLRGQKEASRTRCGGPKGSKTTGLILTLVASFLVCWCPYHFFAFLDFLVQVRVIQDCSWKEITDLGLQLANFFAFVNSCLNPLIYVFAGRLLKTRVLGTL
Protocol: (§1) The agonistic or antagonistic activity of substances can be quantified on the bradykinin receptor 1 (B1R) of the species human and rat using ectopically expressing cell lines (CHO K1 cells) and with the aid of a Ca^2+-sensitive dye (Fluo-4) using a fluorescent imaging plate reader (FLIPR). The indication in % activation is based on the Ca^2+ signal after addition of Lys-Des-Arg^9-bradykinin (0.5 nM) or Des-Arg^9-bradykinin (100 nM). Antagonists lead to suppression of the Ca^2+ influx after the addition of the agonist. % Inhibition compared with the maximum achievable inhibition is indicated.
(§2) The agonistic or antagonistic activity of substances can be determined on the bradykinin receptor 1 (B1R) of the species human and rat using the following assay. According to this assay, the Ca^2+ influx through the channel is quantified with the aid of a Ca^2+-sensitive dye (Fluo-4 type, Molecular Probes Europe BV, Leiden, Netherlands) using a Fluorescent Imaging Plate Reader (FLIPR, Molecular Devices, Sunnyvale, USA).
(§3) Chinese hamster ovary cells (CHO K1 cells) which have been stably transfected with the human B1R gene (hB1R cells) or with the B1R gene of the rat (rB1R cells) are used. For functional studies, the cells are plated out on black 96-well plates having a clear base (BD Biosciences, Heidelberg, Germany or Greiner, Frickenhausen, Germany) in a density of 20,000-35,000 cells/well. The cells are left overnight at 37° C. and with 5% CO2 in culture medium (hB1R cells: Nutrient Mixture Ham's F12, Gibco Invitrogen GmbH, Karlsruhe, Germany or DMEM, Sigma-Aldrich, Taufkirchen, Germany; rB1R cells: D-MEM/F12, Gibco Invitrogen GmbH, Karlsruhe, Germany), with 10 vol. % FBS (fetal bovine serum, Gibco Invitrogen GmbH, Karlsruhe, Germany or PAN Biotech GmbH, Aidenbach, Germany). On the following day, the cells are loaded for 60 minutes at 37° C. with 2.13 μM Fluo-4 (Molecular Probes Europe BV, Leiden, Netherlands) in HBSS buffer (Hank's buffered saline solution, Gibco Invitrogen GmbH, Karlsruhe, Germany) […] (Sigma-Aldrich, Taufkirchen, Germany) and 10 mM HEPES (Sigma-Aldrich, Taufkirchen, Germany). The plates are then washed twice with HBSS buffer, and HBSS buffer additionally containing 0.1% BSA (bovine serum albumin; Sigma-Aldrich, Taufkirchen, Germany), 5.6 mM glucose and 0.05% gelatin (Merck KGaA, Darmstadt, Germany) is added to the plates. After incubation for a further 20 minutes at room temperature, the plates are inserted into the FLIPR for Ca^2+ measurement. Alternatively, washing is carried out with buffer A (15 mM HEPES, 80 mM NaCl, 5 mM KCl, 1.2 mM CaCl2, 0.7 mM MgSO4, 2 g/l glucose, 2.5 mM probenecid) followed by loading with buffer A with added 2.5 μM Fluo-4 and 0.025% Pluronic F127 (Sigma-Aldrich, Taufkirchen, Germany). The cells are then washed twice with buffer A and incubated for 30 minutes at room temperature with buffer A additionally containing 0.05% BSA and 0.05% gelatin and are then inserted into the FLIPR for Ca^2+ measurement. The Ca^2+-dependent fluorescence is measured before and after the addition of substances (λex=488 nm, λem=540 nm). Quantification is carried out by measuring the highest fluorescence intensity (FC, fluorescence counts) over time.
(§4) The FLIPR protocol consists of two substance additions. Test substances (10 μM) are first pipetted onto the cells and the Ca^2+ influx is compared with the control (hB1R: Lys-Des-Arg^9-bradykinin >=50 nM; rB1R: Des-Arg^9-bradykinin 10 μM). This gives the activation in %, based on the Ca^2+ signal after addition of Lys-Des-Arg^9-bradykinin (>=50 nM) or Des-Arg^9-bradykinin (10 μM). After 10-20 minutes' incubation, Lys-Des-Arg^9-bradykinin (hB1R) or Des-Arg^9-bradykinin (rB1R) is applied in the concentration of the EC80, and the influx of Ca^2+ is likewise determined. Antagonists lead to suppression of the Ca^2+ influx. The % inhibition compared with the maximum achievable inhibition is calculated. […]

[2] = target: T2, human B1R receptor (hB1R) (Homo sapiens, UniProt P46663); assay: FLIPR Ca2+ functional study on bradykinin receptor 1, hB1R cells (CHO K1); assay type: cell-based; conditions: CHO-K1, 10 μM test substance; CHO K1 cells with human B1R; agonist Lys-Des-Arg9-bradykinin at EC80; read-out: B1R antagonism, human [10 μM] % inhibition
T2 construct: expressed in transfected cells; host or cells: CHO K1 cells, stably transfected
T2 sequence (P46663 1-353): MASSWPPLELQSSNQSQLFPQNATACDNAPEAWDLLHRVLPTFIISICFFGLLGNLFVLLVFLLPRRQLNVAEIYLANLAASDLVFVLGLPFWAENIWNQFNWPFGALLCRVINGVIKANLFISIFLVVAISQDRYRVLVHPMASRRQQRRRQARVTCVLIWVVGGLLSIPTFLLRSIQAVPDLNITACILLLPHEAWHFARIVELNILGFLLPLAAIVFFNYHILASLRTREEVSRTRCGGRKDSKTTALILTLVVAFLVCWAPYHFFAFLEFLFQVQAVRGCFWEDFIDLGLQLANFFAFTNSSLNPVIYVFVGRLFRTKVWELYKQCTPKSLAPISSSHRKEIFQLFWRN
Protocol: as §1, §2, §3, §4

Row | SMILES | inhibition at 10 µM [1] [%] | inhibition at 10 µM [2] [%]
1 | COc1cc(C)c(S(=O)(=O)N2CCCc3ccc(CC(=O)N4CCC5(CCC(Oc6ccncc6)CC5)CC4)cc32)c(C)c1 [Compound G-30, 2-(1-(4-Methoxy-2,6-dimethylphenylsulfonyl)-1,2,3,4-tetrahydroquinolin-7-yl)-1-(9-(pyridin-4-yloxy)-3-azaspiro[5.5]undecan-3-yl)ethanone] | 98 | 46
2 | COc1cc(C)c(S(=O)(=O)N2CCCc3ccc(CC(=O)N4CCC5(CCC(N6CCC6)CC5)CC4)cc32)c(C)c1 [Compound G-32, 1-(9-(Azetidin-1-yl)-3-azaspiro[5.5]undecan-3-yl)-2-(1-(4-methoxy-2,6-dimethylphenylsulfonyl)-1,2,3,4-tetrahydroquinolin-7-yl)ethanone] | 102 | 91
3 | COc1cc(C)c(S(=O)(=O)N2CCCc3ccc(CC(=O)N4CCC5(CC4)CC(c4ccncc4)=NO5)cc32)c(C)c1 [Compound G-33, 2-(1-(4-Methoxy-2,6-dimethylphenylsulfonyl)-1,2,3,4-tetrahydroquinolin-7-yl)-1-(3-(pyridin-4-yl)-1-oxa-2,8-diazaspiro[4.5]dec-2-en-8-yl)ethanone] | 73 | 65
4 | COc1cc(C)c(S(=O)(=O)N2CCCc3ccc(CC(=O)N4CCC5(CCC(N6CC(F)(F)C6)CC5)CC4)cc32)c(C)c1 [Compound G-34, 1-(9-(3,3-Difluoroazetidin-1-yl)-3-azaspiro[5.5]undecan-3-yl)-2-(1-(4-methoxy-2,6-dimethylphenylsulfonyl)-1,2,3,4-tetrahydroquinolin-7-yl)ethanone] | 86 | 18
5 | O=C(Cc1ccc2c(c1)N(S(=O)(=O)c1ccc(OC(F)(F)F)cc1Cl)CCC2)N1CCC2(CC1)CCN(c1ccncc1)CC2 [Compound G-35, 2-(1-(2-Chloro-4-(trifluoromethoxy)phenylsulfonyl)-1,2,3,4-tetrahydroquinolin-7-yl)-1-(9-(pyridin-4-yl)-3,9-diazaspiro[5.5]undecan-3-yl)ethanone] | 101 | 79
6 | COc1cc(C)c(S(=O)(=O)N2CCc3cccc(C(=O)N4CCC5(CC4)CCN(c4ccncc4)CC5)c3C2)c(C)c1 [Compound G-36, (2-(4-Methoxy-2,6-dimethylphenylsulfonyl)-1,2,3,4-tetrahydroisoquinolin-8-yl)(9-(pyridin-4-yl)-3,9-diazaspiro[5.5]undecan-3-yl)methanone] | 99 | 99
7 | Cc1cccc(Cl)c1S(=O)(=O)N1CCc2cccc(C(=O)N3CCC4(CC3)CCN(c3ccncc3)CC4)c2C1 [Compound G-37, (2-(2-Chloro-6-methylphenylsulfonyl)-1,2,3,4-tetrahydroisoquinolin-8-yl)(9-(pyridin-4-yl)-3,9-diazaspiro[5.5]undecan-3-yl)methanone] | 90 | 99
8 | O=C(c1cccc2c1CN(S(=O)(=O)c1cccc(Cl)c1Cl)CC2)N1CCC2(CC1)CCN(c1ccncc1)CC2 [Compound G-38, (2-(2,3-Dichlorophenylsulfonyl)-1,2,3,4-tetrahydroisoquinolin-8-yl)(9-(pyridin-4-yl)-3,9-diazaspiro[5.5]undecan-3-yl)methanone] | 91 | 97
9 | COc1cc(C)c(S(=O)(=O)N2CCc3ccc(CC(=O)N4CCC5(CC4)CCN(c4ccncc4)CC5)cc3C2)c(C)c1 [Compound G-39, 2-(2-(4-Methoxy-2,6-dimethylphenylsulfonyl)-1,2,3,4-tetrahydroisoquinolin-7-yl)-1-(9-(pyridin-4-yl)-3,9-diazaspiro[5.5]undecan-3-yl)ethanone] | 89 | 99
10 | COc1cc(C)c(S(=O)(=O)N2CCn3cc(C(=O)N4CCC5(CC4)CCN(c4ccncc4)CC5)nc3C2)c(C)c1 [Compound G-40, (7-(4-Methoxy-2,6-dimethylphenylsulfonyl)-5,6,7,8-tetrahydroimidazo[1,2-a]pyrazin-2-yl)(9-(pyridin-4-yl)-3,9-diazaspiro[5.5]undecan-3-yl)methanone] | 102 | 100
11 | O=C(/C=C/c1ccccc1Cl)N1CCc2ccc(C(=O)N3CCC4(CC3)CCN(c3ccncc3)CC4)cc2C1 [Compound G-41, 3-(2-Chlorophenyl)-1-(7-(9-(pyridin-4-yl)-3,9-diazaspiro[5.5]undecane-3-carbonyl)-3,4-dihydroisoquinolin-2(1H)-yl)prop-2-en-1-one] | 90 | 99
12 | O=C(c1ccc2c(c1)CN(C(=O)c1ccc(Cl)s1)CC2)N1CCC2(CC1)CCN(c1ccncc1)CC2 [Compound G-42, (5-Chlorothiophen-2-yl)(7-(9-(pyridin-4-yl)-3,9-diazaspiro[5.5]undecane-3-carbonyl)-3,4-dihydroisoquinolin-2(1H)-yl)methanone] | 102 | 100
13 | O=C(Cc1ccccc1Cl)N1CCc2ccc(C(=O)N3CCC4(CC3)CCN(c3ccncc3)CC4)cc2C1 [Compound G-43, 2-(2-Chlorophenyl)-1-(7-(9-(pyridin-4-yl)-3,9-diazaspiro[5.5]undecane-3-carbonyl)-3,4-dihydroisoquinolin-2(1H)-yl)ethanone] | 102 | 99
14 | O=C(c1ccc(Cl)s1)N1CCc2cccc(C(=O)N3CCC4(CC3)CCN(c3ccncc3)CC4)c2C1 [Compound G-44, (5-Chlorothiophen-2-yl)(8-(9-(pyridin-4-yl)-3,9-diazaspiro[5.5]undecane-3-carbonyl)-3,4-dihydroisoquinolin-2(1H)-yl)methanone] | 62 | 99
15 | O=C(NCc1ccccc1Cl)N1CCc2ccc(C(=O)N3CCC4(CC3)CCN(c3ccncc3)CC4)cc2C1 [Compound G-45, N-(2-Chlorobenzyl)-7-(9-(pyridin-4-yl)-3,9-diazaspiro[5.5]undecane-3-carbonyl)-3,4-dihydroisoquinoline-2(1H)-carboxamide] | 97 | 97

Reference: patent publication US8357717B2, “Spiro group-containing amide compounds having bradykinin 1 receptor (B1R) activity” (Gruenenthal GmbH, priority 2009, dated 2013)
